{
  "source": "patent US4439619A",
  "about": "“Fluorinated pentene diamine derivatives” (Merrell Toraude et Compagnie, priority 1980, dated 1984)",
  "key": {"[1]": {"assay": "Contragestational activity in mice (method of J. Fozard)", "format": "in vivo", "settings": "80 mg/kg S.C. every six hours on the 8th day of gestation", "experimental": "The compounds of Formula I wherein Rc is --COR3 are also capable of interrupting embryogenesis in female mammals when administered systematically. Thus, the compounds are useful as contragestational agents in female mammals when it is desired to terminate early pregnancy. […] In general, an effective daily dose of the compounds of Formula I, wherein Rc is --COR3, for terminating pregnancy in warm-blooded mammals is from 10 mg/kg to 1 g/kg, preferably 10 to 100 mg/kg, administered after fertilisation during the period between Standard Stages 8-16 of gestation as defined by E. Wischi (See Tables 26-27, pages 82-92, Biology Data Book, Altman and Dittmer, Editors, Published by the Federation of American Societies for Experimental Biology, Washington, D.C., 1964). The period of treatment will vary with the species. In humans, the period of treatment will extend from the 6th-7th day of gestation of the 27th day."}, "[2]": {"biological_target": "T1, Ornithine decarboxylase (ODC) (Rattus norvegicus, UniProt P09057)", "T1 construct": "prepared from the livers of rats which have been injected with thioacetamide; from tissue; host or cells: rat liver (thioacetamide-injected rats), purified about ten fold by acid treatment at pH 4.6", "T1 sequence (P09057 1-461)": "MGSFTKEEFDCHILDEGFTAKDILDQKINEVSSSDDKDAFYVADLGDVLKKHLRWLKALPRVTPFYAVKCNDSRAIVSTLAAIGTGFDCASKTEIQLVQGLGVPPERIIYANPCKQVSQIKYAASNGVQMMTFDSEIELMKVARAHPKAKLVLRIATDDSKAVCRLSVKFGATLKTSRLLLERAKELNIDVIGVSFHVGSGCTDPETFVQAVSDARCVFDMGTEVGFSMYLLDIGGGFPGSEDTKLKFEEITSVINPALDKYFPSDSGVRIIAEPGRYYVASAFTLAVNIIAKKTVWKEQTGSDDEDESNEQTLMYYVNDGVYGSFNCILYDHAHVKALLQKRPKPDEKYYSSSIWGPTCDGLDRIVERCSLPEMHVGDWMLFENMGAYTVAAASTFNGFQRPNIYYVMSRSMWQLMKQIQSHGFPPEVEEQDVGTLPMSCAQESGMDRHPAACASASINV", "assay": "Inhibition of ornithine decarboxylase (ODC) in vitro (partially purified ODC from rat liver, 14CO2 assay, Kitz and Wilson)", "format": "biochemical, rats", "design": "Half-life (t1/2): dose or concentration left out as unconfirmed", "settings": "for τ50 (half-life, at infinite concentration of inhibitor) / Ki: 37°, Kitz and Wilson; for Ki: time-dependent inhibition, read-out: KI (apparent dissociation constant)", "experimental": "Ornithine decarboxylase (ODC) is prepared from the livers of rats which have been injected with thioacetamide (150 mg/kg of body weight) 18 hrs before sacrifice, and is purified about ten fold by acid treatment at pH 4.6 as described by Ono et al. (Biochem. Biophys. Acta 284, 285 (1972)). The stock solution of ODC is comprised of protein (16 mg/mL), sodium phosphate buffer (30 mM, pH 7.1), dithiothreitol (5 mM) and pyridoxal phosphate (0.1 mM). The specific activity of this stock solution is 0.12 nmol of CO2 /min per mg of protein. For a typical experiment 320 μl of this stock solution are mixed at time 0 with 80 μl of a solution of the inhibitor in water and incubated at 37°. At different times 50 μl aliquots are transferred into a 1-mL assay medium containing sodium phosphate (30 mM, pH 7.1), dithiothreitol (5 mM), pyridoxal phosphate (0.1 mM), L-ornithine ([…]), and DL-[1-^14 C] ornithine ([…], 58 Ci/mol, Amersham) in a closed vessel in which a filter paper moistered with 50 μl hyamine hydroxide (1 M) is fitted. The reaction is allowed to proceed for 60 min at 37° C. and then terminated by addition of 0.5 ml of 40% trichloroacetic acid. After an additional 30 min the CO2 absorbed on the filter paper is counted in a standard scintillation cocktail. KI (apparent dissociation constant) and .tau.50 (half-life, at infinite concentration of inhibitor are calculated according to the method of Kitz and Wilson (J. Biol. Chem., 237, 3245 (1962)).\nWhen tested according to the above-described procedure, representative compounds of Formula I gave the results shown in Table III below. The same abbreviations are used as in Table II and DFMDP is α-difluoromethyl-trans-β-dehydroputrescine."}, "[3]": {"system": "Ornithine decarboxylase (ODC)", "assay": "ODC inhibitory activity in vivo (ODC activity in ventral prostate and thymus of rats)", "design": "species or system rats (Sprague-Dawley)", "experimental": "Male rats of the Sprague-Dawley strain (200-220 g body weight), purchased from Charles River, are given food and water ad libitum under a constant 12 hr light--12 hr dark lighting schedule. Drugs are injected intraperitoneally (dissolved in 0.9% saline) or are given by gavage (dissolved in water). Rats given saline or water serve as control. Five to six hours after drug administration, the animals are killed by decapitation and the ventral prostrate and thymus are excised rapidly and immediately processed. The tissues are homogenized with three volumes of 30 mM sodium phosphate buffer (pH 7.1) containing 0.1 mM EDTA, 0.25 M sucrose, 0.1 mM pyridoxal phosphate and 5 mM dithiothreitol. Ornithine decarboxylase activities are determined on a 1000 g supernatant of prostate homogenate and on a whole thymus homogenate, essentially as described by Ono et al. (Biochem. Biophys. Acta, 284, 285 (1972)).\nWhen tested according to the above-described procedure, representative compounds of Formula I gave the results shown in Table II below and in which the following abbreviations are used: […]"}, "[4]": {"system": "carcinoma of the bladder, esophagus, lung, pancreas, colon, kidney, breast and prostate, oat cell carcinoma, adenocarcinoma, lymphoma, hepatoma, melanoma …", "settings": "intravenously once or twice a week; 65 treated patients; cited from earlier work"}, "[5]": {"assay": "in vivo", "format": "in vivo, mice", "settings": "2% in drinking water or 200 mg/kg i.p. twice a day, after 10 days", "experimental": "When given in drinking water (2%) or injected i.p. (200 mg/kg twice a day) MFMDP induced the following toxic effects observed after 10 days of treatment: […]"}, "[6]": {"system": "L 1210 leukemia", "format": "in vivo, mice", "experimental": "(§1) When tested in mice against L 1210 leukemia and EMT6 solid tumors, -fluoromethyl-trans-dehydroputrescine (MFMDP) gave the following results:\nWhen injected i.p. (twice a day from day 1) at a dose of 50 mg/kg it increased by 20% the mean survival time of the mice."}, "[7]": {"system": "EMT6 solid tumors", "assay": "Anti-neoplastic effect in mice inoculated with EMT6 solid sarcoma", "format": "in vivo", "description": "as §1\n2% MFMDP in water as sole drinking fluid starting 4 days after inoculation of the cells, inhibited by 60% to 70% the growth of the tumor at day 17. When given at 0.2% in water, it inhibited by 25% tumor growth."}, "[8]": {"assay": "Acute i.p. toxicity (LD50) in mice", "settings": "mouse, in vivo, ip, acute i.p. injection", "description": "The LD50 is acute i.p. injection was between 1 and 3 g/kg in mice."}, "[9]": {"system": "ODC", "assay": "ODC activity in the EMT6 tumor of treated mice", "format": "in vivo", "settings": "all treatments (2% and 0.2% in water, 200 mg/kg i.p.)"}},
  "data": [
    {"molecule": "NC/C=C/C(N)(CF)C(=O)O", "note": "(centres unmarked) [MFMDO, 2-Fluoromethyl-2,5-diamino-3-(E)-penten-1-oic acid]", "values": [
      {"measurement": "inhibition of gestation (number of viable feti per gravid female vs controls)", "setting": "[1]", "result": "inhibited gestation"},
      {"measurement": "Half-life (t1/2)", "setting": "[2]", "result": 3.1, "unit": "min"},
      {"measurement": "τ50 (half-life, at infinite concentration of inhibitor)", "setting": "[2]", "result": 2.7, "unit": "min"},
      {"measurement": "Ki", "setting": "[2]", "result": 2.8, "unit": "µM"},
      {"measurement": "ODC activity, ventral prostate", "setting": "[3]; 50 mg/kg I.P.", "result": 18, "unit": "% CONTROL"},
      {"measurement": "ODC activity, ventral prostate", "setting": "[3]; 50 mg/kg gavage", "result": 36, "unit": "% CONTROL"}
    ]},
    {"molecule": "NC/C=C/C(N)C(F)F", "note": "(centres unmarked) [DFMDP, 2,2-Difluoro-2,5-diamino-3-(E)-pentene]", "values": [
      {"measurement": "Half-life (t1/2)", "setting": "[2]", "result": 5, "unit": "min"},
      {"measurement": "τ50 (half-life, at infinite concentration of inhibitor)", "setting": "[2]", "result": 0.7, "unit": "min"},
      {"measurement": "Ki", "setting": "[2]", "result": 60, "unit": "µM"}
    ]},
    {"molecule": "CC(C=NNC(=N)N)=NNC(=N)N", "note": "[MGBG, methylglyoxal bis(guanylhydrazone)]", "values": [
      {"measurement": "complete disappearance of the disease", "setting": "[4]", "result": "complete disappearance of the disease in two of the 65 treated patients"},
      {"measurement": "regression of the tumor", "setting": "[4]", "result": "measurable regression of the tumor in many of the patients treated"}
    ]},
    {"molecule": "NC/C=C/C(N)(C(=O)O)C(F)F", "note": "(centres unmarked) [DFMDO, 2-Difluoromethyl-2,5-diamino-3-(E)-penten-1-oic acid]", "values": [
      {"measurement": "Half-life (t1/2)", "setting": "[2]", "result": 10.0, "unit": "min"},
      {"measurement": "τ50 (half-life, at infinite concentration of inhibitor)", "setting": "[2]", "result": 2.5, "unit": "min"},
      {"measurement": "Ki", "setting": "[2]", "result": 30, "unit": "µM"},
      {"measurement": "ODC activity, ventral prostate", "setting": "[3]; 50 mg/kg gavage", "result": 119, "unit": "% CONTROL"}
    ]},
    {"molecule": "NC/C=C/C(N)CF", "note": "(centres unmarked) [MFMDP, 1-Fluoro-2,5-diamino-3-(E)-pentene]", "values": [
      {"measurement": "decrease in body weight", "setting": "[5]", "result": 25, "unit": "%"},
      {"measurement": "decrease in water intake", "setting": "[5]", "result": "30-40%"},
      {"measurement": "drop in blood leukocytes", "setting": "[5]", "result": 50, "unit": "%"},
      {"measurement": "mortality at 240 h", "setting": "[5]; mouse, in vivo, read-out: animals dead", "result": 15, "unit": "%"},
      {"measurement": "increase of mean survival time", "setting": "[6]; 50 mg/kg i.p. twice a day from day 1", "result": 20, "unit": "%"},
      {"measurement": "prolongation of survival", "setting": "[6]; 0.2% in water as sole drinking fluid from day 1 after inoculation", "result": "did not prolong the survival of the mice"},
      {"measurement": "increased survival", "setting": "[6]; 200 mg/kg i.p.", "result": "no increased survival could be observed"},
      {"measurement": "toxicity", "setting": "[6]; 200 mg/kg i.p., L 1210 mice", "result": "toxic"},
      {"measurement": "Half-life (t1/2)", "setting": "[2]", "result": 0.9, "unit": "min"},
      {"measurement": "τ50 (half-life, at infinite concentration of inhibitor)", "setting": "[2]", "result": 0.2, "unit": "min"},
      {"measurement": "Ki", "setting": "[2]", "result": 42, "unit": "µM"},
      {"measurement": "inhibition of tumor growth", "setting": "[7]; 0.2% in water", "result": 25, "unit": "%"},
      {"measurement": "inhibition of tumor growth", "setting": "[7]; 200 mg/kg i.p. twice a day starting 4 days after inoculation, day 13", "result": 50, "unit": "%"},
      {"measurement": "LD50", "setting": "[8]", "result": "1000 to 3000", "unit": "mg/kg"},
      {"measurement": "ODC activity in the tumor", "setting": "[9]", "result": "markedly inhibited in all cases"},
      {"measurement": "ODC activity, thymus", "setting": "[3]; 25 mg/kg I.P.", "result": 24, "unit": "% CONTROL"},
      {"measurement": "ODC activity, ventral prostate", "setting": "[3]; 25 mg/kg gavage", "result": 12, "unit": "% CONTROL"}
    ]}
  ]
}
